US6635665B2, “Remedies or preventives for pulmonary insufficiency containing diaminotrifluoromethylpyridine derivatives” (Ishihara Sangyo Kaisha, Ltd., priority 2000, dated 2003)

Test system: LPS induced rat ARDS model
Experiment: Therapeutic effect on lipopolysaccharide (LPS) induced rat ARDS model
Format: in vivo
Excerpt: The therapeutic effect of N-(2-ethylsulfonylamino-5-trifluoromethyl-3-pyridyl)cyclohexanecarboxamide sodium salt hydrate (hereinafter referred to as compound 1) on LPS induced rat ARDS model was examined.
The compound 1 was used as a drug formulation. The formulation composition (content per one vial) was as follows.
To Crj: CD(SD)IGS male rats (7 weeks old) (Charles River Japan Inc.), LPS (derived from Salmonella enteritidis; L6011, Lot. 27H4127, manufactured by Sigma) diluted with a phosphate buffer solution (PBS) was administered by spraying it on the trachea in a dose of 8 mg/kg (0.5 ml/rat) by means of an atomizer (endotracheal liquid atomizing apparatus 1A-1B, manufactured by Penn Century) to induce ARDS. For normal group rats, PBS was similarly sprayed.
A drug formulation of the compound 1 diluted with 5% glucose was subcutaneously administered continuously in a dose of 0.3 mg/kg/hr as calculated as anhydride of the compound 1 by means of an osmotic pump from immediately after the induction to the time of autopsy (24 hours after). To non-treated group rats, 5% glucose used as the solvent was administered similarly.
24 Hours after the administration of LPS, measurement of the body weight and the lung wet weight, biochemical examination of blood and pathological and histopathological examinations were carried out with respect to every surviving rats.
No death was confirmed 24 hours after the LPS administration, and thus various examinations were carried out with respect to every rat. Here, the pathological score was obtained by evaluating each rat in five stages of −(no significant lesion), ±(slight), +(mild), ++(moderate) and +++(marked), and allotting 0, 0.5, 1, 2 and 3 points, respectively, to obtain the average of each group.

[1] = Crj:CD(SD)IGS male rats, LPS 8 mg/kg on the trachea, 0.3 mg/kg/hr x 24 hr subcutaneous by osmotic pump, 24 hours after LPS, score 0-3, non-treated group 2.7, P < 0.01 vs. non-treated group
[2] = Crj:CD(SD)IGS male rats, LPS 8 mg/kg on the trachea, 0.3 mg/kg/hr x 24 hr subcutaneous by osmotic pump, 24 hours after LPS, score 0-3, non-treated group 2.8, P < 0.01 vs. non-treated group

In the case of `CCS(=O)(=O)Nc1ncc(C(F)(F)F)cc1NC(=O)C1CCCCC1.O.[Na]` [Compound 1, N-(2-ethylsulfonylamino-5-trifluoromethyl-3-pyridyl)cyclohexanecarboxamide sodium salt hydrate], the “Histopathological findings of alveoli: Collapse of alveolar wall (average of score in each group), Mean” value [1] is reported as 1.2, the “Histopathological findings of alveoli: Hemorrhage in alveoli (average of score in each group), Mean” value [1] is reported as 1.5 and the “Histopathological findings of alveoli: Alveolar edema (average of score in each group), Mean” value [2] is reported as 1.4. The “Histopathological findings of alveoli: Fibrin deposit in alveoli (average of score in each group), Mean” value [2] was 1.5, the “Autopsy findings of lung: Edema (average of score in each group), Mean” value (Crj:CD(SD)IGS male rats, LPS 8 mg/kg on the trachea, 0.3 mg/kg/hr x 24 hr subcutaneous by osmotic pump, autopsy 24 hours after LPS, score 0, 0.5, 1, 2, 3 for -, ±, +, ++, +++, non-treated group 0.4) was 0.1 and the “Autopsy findings of lung: Hemorrhage (average of score in each group), Mean” value (Crj:CD(SD)IGS male rats, LPS 8 mg/kg on the trachea, 0.3 mg/kg/hr x 24 hr subcutaneous by osmotic pump, autopsy 24 hours after LPS, score 0-3, non-treated group 1.0) was 0.5. For the same compound, the “Autopsy findings of lung: Congestion (average of score in each group), Mean” value (Crj:CD(SD)IGS male rats, LPS 8 mg/kg on the trachea, 0.3 mg/kg/hr x 24 hr subcutaneous by osmotic pump, autopsy 24 hours after LPS, score 0-3, non-treated group 2.8, P < 0.01 vs. non-treated group) was 2.2, the “Collapse of the alveolar wall, alveolar edema and hemorrhage, and fibrin deposit in the alveoli” value (LPS induced rat ARDS model, compound 1 administered group (0.3 mg/kg/hr subcutaneous, 24 hours) compared with non-treated group, result in words) was “reduced” and the “Inhibition effect against ARDS pathological progress” value (LPS induced rat ARDS model, compound 1 administered group (0.3 mg/kg/hr subcutaneous, 24 hours), result in words) was “remarkable inhibition effect”.
